“And” between values parts separate entries of the source, which are not always exact repeats. Equal entries are not always repeated. Where two headings read alike, the source gives them in different places.
Assay: Pharmacokinetic analyses in mouse
Type: in vivo
Settings: for AUC(0-t): read-out: AUC0-24h; for AUC(0-inf): read-out: AUC0-inf
Description: Compound concentrations in plasma aliquots were measured by quantitative HPLC-MS/MS using an internal standard. Calibration and quality control samples were prepared using blank plasma from untreated animals. Samples were precipitated with acetonitrile and injected into a HPLC system (Agilent 1200). Separation was performed by gradients of 5 mmol/L ammonium acetate pH 4.0 and acetonitrile with 0.1% formic acid on a 2.1 mm by 50 mm XBridge BEH C18 reversed-phase column with 2.5 µm particles (Waters). The HPLC was interfaced by ESI operated in positive ionisation mode to a triple quadrupole mass spectrometer (5000 or 6500+ Triple Quad System, SCIEX) operated in multiple reaction monitoring mode. Transitions were 532.4 to 432.8 m/z for BI01810284, 525.6 to 425.7 m/z for BI01802983 and 1021.6 to 624.2 m/z for BI01580883. Chromatograms were analyzed with Analyst (SCIEX) and pharmacokinetic parameters were calculated by non-compartmental analysis using BI-proprietary software.

[1] = 5 mg/kg i.v., individual animals
[2] = 30 mg/kg p.o., individual animals
[3] = NMRI, mouse, plasma, iv, 5 mg/kg, NMRI mice, i.v., 5 mg/kg, PK study
[4] = NMRI, mouse, plasma, po, 30 mg/kg, NMRI mice, p.o., 30 mg/kg, PK study
[5] = mouse, 5 mg/kg i.v., NCA, individual animals, 5 mg/kg
[6] = mouse, 30 mg/kg p.o., NCA, individual animals, 30 mg/kg

Cc1ncsc1-c1ccc(C(CCC(C)CCN2CCC(c3ccc4c(c3)n(C3CCCC3)c3nc(=O)c5c(Br)cccc5n43)CC2)NC(=O)C2CC(O)CN2C(=O)C(NC(=O)C2(F)CC2)C(C)(C)C)cc1 (centres unmarked) [ACBI2]
AUC [1]: 41.8 µM·h and 38 µM·h | AUCinf [1]: 42.3 µM·h and 38.4 µM·h | Concentration (5 mg/kg i.v., time 0.25 h, individual animals): 6.8 µM | Concentration (5 mg/kg i.v., time 1 h, individual animals): 5.13 µM | Concentration (5 mg/kg i.v., time 6 h, individual animals): 1.22 µM | Concentration (5 mg/kg i.v., time 24 h, individual animals): 0.0949 µM | F (30 mg/kg p.o. vs 5 mg/kg i.v., individual animals): 23.8% and 20.9% | AUC [2]: 53.9 µM·h and 47.2 µM·h | AUCinf [2]: 55 µM·h and 48.3 µM·h | MRT (NMRI, mouse, plasma, iv, 5 mg/kg, NMRI mice, PK study): 3.8 h | AUC(0-t) [3]: 38 µM·h | AUC(0-inf) [3]: 38 µM·h | clearance (NMRI, mouse, plasma, iv, 5 mg/kg, NMRI mice, i.v., 5 mg/kg, PK study, read-out: Clearance): 2 mL/min/kg | Vd (NMRI, mouse, plasma, iv, 5 mg/kg, NMRI mice, i.v., 5 mg/kg, PK study, read-out: Vss): 0.47 L/kg | MRT (NMRI, mouse, plasma, po, 30 mg/kg, NMRI mice, PK study): 6.1 h | AUC(0-t) [4]: 50 µM·h | AUC(0-inf) [4]: 51 µM·h | bioavailability (NMRI, mouse, plasma, po, 30 mg/kg, NMRI mice, p.o., 30 mg/kg, PK study, read-out: Bioavailability): 22% | AUC(0-t) (NMRI, mouse, plasma, po, 80 mg/kg, NMRI mice, p.o., 80 mg/kg, Xenograft study): 84 µM·h | Plasma concentration (mouse, 5 mg/kg i.v., 0.25 h, individual animals, 5 mg/kg): 7.53 µM and 7.36 µM | Plasma concentration (mouse, 5 mg/kg i.v., 1 h, individual animals, 5 mg/kg): 6 µM and 5.66 µM | Plasma concentration (mouse, 5 mg/kg i.v., 6 h, individual animals, 5 mg/kg): 1.62 µM and 1.38 µM | Plasma concentration (mouse, 5 mg/kg i.v., 24 h, individual animals, 5 mg/kg): 0.0855 µM and 0.0743 µM | AUC [5]: 41.8 µM·h and 38 µM·h | AUCinf [5]: 42.3 µM·h and 38.4 µM·h | CL [5]: 1.85 mL/min/kg and 2.04 mL/min/kg | Vss [5]: 0.426 L/kg and 0.449 L/kg | Plasma concentration (mouse, 30 mg/kg p.o., 0.333 h, individual animals, 30 mg/kg): 0.968 µM and 1.53 µM | Plasma concentration (mouse, 30 mg/kg p.o., 1 h, individual animals, 30 mg/kg): 4.18 µM and 4.16 µM | Plasma concentration (mouse, 30 mg/kg p.o., 2 h, individual animals, 30 mg/kg): 4.46 µM and 4.88 µM | Plasma concentration (mouse, 30 mg/kg p.o., 6 h, individual animals, 30 mg/kg): 3.38 µM and 2.65 µM | Plasma concentration (mouse, 30 mg/kg p.o., 24 h, individual animals, 30 mg/kg): 0.173 µM and 0.175 µM | AUC [6]: 53.9 µM·h and 47.2 µM·h | AUCinf [6]: 55 µM·h and 48.3 µM·h | F [6]: 23.8% and 20.9% | concentration at 0.25 h (mouse, plasma, intravenous, 5 mg/kg, 5 mg/kg i.v., time 0.25 h, individual animals, read-out: Concentration): 7.53 µM | concentration at 1 h (mouse, plasma, intravenous, 5 mg/kg, 5 mg/kg i.v., time 1 h, individual animals, read-out: Concentration): 6 µM | concentration at 6 h (mouse, plasma, intravenous, 5 mg/kg, 5 mg/kg i.v., time 6 h, individual animals, read-out: Concentration): 1.62 µM

Reference: article PMC9551036, “A selective and orally bioavailable VHL-recruiting PROTAC achieves SMARCA2 degradation in vivo” (Nature Communications, 2022)
